Results reported in patent US7148380B2, “Bio-energy muscle relaxants” (priority 2000, dated 2006).

Columns and labels:
[1] = system: drug-induced asthma in guinea pig; assay: Asthmatic latent period / drug-induced asthma in guinea pig (acetylcholine + histamine inhalation); type: in vivo
Description: Sensitive animals were chosen by aerosolized inhalation of asthma-inducing agents—a mixed solution of 2% acetylcholine with 0.1% histamine for 15 sec., inducing an asthmatic attack with severe difficulty in respiration and finally resulting in the animal body turned down. The time from beginning of the inhalation to animal turned down was recorded as an index named “turned down time” or asthmatic latent period. Those animals with turned down time less than 120 s. were selected for the study next day. […] Then the latent period was recorded for each of the animals.
(1) Screening animals: animal was put in a glass container, a mixed solution of 2% acetylcholine and 0.1% histamine was nebulized with a pressure of 400 mmHg and inhaled by the animals for 15 sec. Following the end of the inhalation, the time between beginning of the inhalation and the animal turned down due to bronchial spasm and dyspnea was recorded as asthmatic latent period. Those animals with a latent period beyond 120 s. were excluded, and those with a latent period less than 120 s were selected for study the next day.
(4) Measuring: Repeat the inhalation at 30 min, 4 h, and 24 h after administration of the drugs respectively. Asthmatic latent period was recorded, 6 minutes were taken as the maximum, and values beyond 6 min were counted as 6 min.
(5) Data analysis: Values were expressed as mean±sd, and paired for “t” and chi-square tests. Significance was considered to be established when p<0.05.

[2] = system: contraction of bronchial smooth muscle induced by histamine; assay: By-pass-airflow pressure, bronchial smooth muscle contraction induced by histamine; type: in vivo, guinea pig
Description: The animals were divided as saline, BDM, and aminophylline groups. Each animal was anesthetized with pentobarbital (30 mg/kg, I.P.), the trachea was intubated and connected to respirator. Tidal volume and frequency of the respirator were adjusted to 6˜10 ml and 60˜70 breath/min. respectively.
A small hole on chest wall of the animal was made, resulting in pneumothorax to inhibit spontaneous respiration of the animal. A modified device was used for measuring by-pass-airflow pressure of the airway, reflecting alteration in airway resistance, therefore evaluating status of bronchial smooth muscle contraction induced by histamine. The by-pass-airflow pressures were measured before and at 10, 20, 30, 40, 50, and 60 min after administration of histamine (5˜10 μg, I.P.) as control values. […] Changes in by-pass-airflow pressure caused by histamine before and after saline, BDM, or aminophylline were compared.
A percentage of changes in the airflow pressures before and after administration of the histamine at different time points, defined as the change rate, was calculated according to formula 1 below: Change rate (%)=(PA−PB)/PB×100% (1)
where PA is the airflow pressure after histamine, PB is the pressure before histamine. Values were expressed as mean±SD, paired or group “t” test was used upon the requirement for the statistical analysis. The results were considered significant when p<0.05.

[3] = 10 ml/kg I.P. (BDM 0.2M, aminophylline 1.25%), mean±sd
[4] = after drug 10 ml/kg I.P., 10 min after histamine
[5] = after drug 10 ml/kg I.P., 20 min after histamine
[6] = after drug 10 ml/kg I.P., 30 min after histamine
[7] = after drug 10 ml/kg I.P., 40 min after histamine
[8] = after drug 10 ml/kg I.P., 50 min after histamine
[9] = after drug 10 ml/kg I.P., 60 min after histamine
[10] = before drug administration, 10 min after histamine
[11] = before drug administration, 20 min after histamine
[12] = before drug administration, 30 min after histamine
[13] = before drug administration, 40 min after histamine
[14] = before drug administration, 50 min after histamine
[15] = before drug administration, 60 min after histamine

Cn1c(=O)c2[nH]cnc2n(C)c1=O [Aminophylline, aminophylline, reference compound]
Asthamatic Latent Period, 30 minutes after administration ([1]; 10 ml/kg I.P. (BDM 0.2M, aminophylline 1.25%), maximum 6 min, mean±sd): 298.2 ± 138.2 s | Asthamatic Latent Period, 4 hours after administration [1, 3]: 216.6 ± 112.5 s | Asthamatic Latent Period, 24 hours after administration [1, 3]: 96 ± 26.9 s | Incidence of asthmatic spasm ([1]; 30 min after administration, down from 100%, not significant): 40% | Asthamatic Latent Period, before administration ([1]; baseline before drug, 10 ml/kg I.P. (BDM 0.2M, aminophylline 1.25%), mean±sd): 70.6 ± 27.7 s | Effect on the latent period ([1]; thirty minutes and 4 h after administration, p<0.05): significantly extended | by-pass-airflow pressure, A, B. Hist ([2]; after drug 10 ml/kg I.P. (BDM 0.2M, aminophylline 1.25%), before histamine): 4.24 ± 1.18 Kpa | by-pass-airflow pressure, A, Hist 10 min. [2, 4]: 4.36 ± 1.10 Kpa | changing rate of by-pass-airflow pressure, A, Hist 10 min. [2, 4]: −7.68% | by-pass-airflow pressure, A, Hist 20 min. [2, 5]: 4.18 ± 0.86 Kpa | changing rate of by-pass-airflow pressure, A, Hist 20 min. [2, 5]: −10.62% | by-pass-airflow pressure, A, Hist 30 min. [2, 6]: 4.20 ± 0.92 Kpa | changing rate of by-pass-airflow pressure, A, Hist 30 min. [2, 6]: −10.40% | by-pass-airflow pressure, A, Hist 40 min. [2, 7]: 4.15 ± 0.88 Kpa | changing rate of by-pass-airflow pressure, A, Hist 40 min. [2, 7]: −11.38% | by-pass-airflow pressure, A, Hist 50 min. [2, 8]: 4.10 ± 0.92 Kpa | changing rate of by-pass-airflow pressure, A, Hist 50 min. [2, 8]: −12.73% | by-pass-airflow pressure, A, Hist 60 min. [2, 9]: 4.02 ± 0.92 Kpa | changing rate of by-pass-airflow pressure, A, Hist 60 min. [2, 9]: −14.25% | histamine-induced increase in the airflow pressure ([2]; at 10, 20, 30, 40, 50, and 60 min after administration, p<0.01 or p<0.05): significantly reduce | by-pass-airflow pressure, B, Hist 10 min. [2, 10]: 4.51 ± 0.65 Kpa | changing rate of by-pass-airflow pressure, B, Hist 10 min. [2, 10]: 8.37% | by-pass-airflow pressure, B, Hist 20 min. [2, 11]: 4.34 ± 0.73 Kpa | changing rate of by-pass-airflow pressure, B, Hist 20 min. [2, 11]: 3.93% | by-pass-airflow pressure, B, Hist 30 min. [2, 12]: 4.40 ± 0.79 Kpa | changing rate of by-pass-airflow pressure, B, Hist 30 min. [2, 12]: 5.31% | by-pass-airflow pressure, B, Hist 40 min. [2, 13]: 4.42 ± 0.80 Kpa | changing rate of by-pass-airflow pressure, B, Hist 40 min. [2, 13]: 5.80% | by-pass-airflow pressure, B, Hist 50 min. [2, 14]: 4.42 ± 0.86 Kpa | changing rate of by-pass-airflow pressure, B, Hist 50 min. [2, 14]: 5.63% | by-pass-airflow pressure, B, Hist 60 min. [2, 15]: 4.46 ± 0.87 Kpa | changing rate of by-pass-airflow pressure, B, Hist 60 min. [2, 15]: 6.54% | by-pass-airflow pressure, B, B. Hist ([2]; before drug administration, before histamine): 4.18 ± 0.72 Kpa | changing rate of by-pass-airflow pressure, D, Hist 10 min. ([2]; difference A minus B, 10 min after histamine): −16.05% | changing rate of by-pass-airflow pressure, D, Hist 20 min. ([2]; difference A minus B, 20 min after histamine): −14.55% | changing rate of by-pass-airflow pressure, D, Hist 30 min. ([2]; difference A minus B, 30 min after histamine): −15.71% | changing rate of by-pass-airflow pressure, D, Hist 40 min. ([2]; difference A minus B, 40 min after histamine): −17.19% | changing rate of by-pass-airflow pressure, D, Hist 50 min. ([2]; difference A minus B, 50 min after histamine): −18.36% | changing rate of by-pass-airflow pressure, D, Hist 60 min. ([2]; difference A minus B, 60 min after histamine): −20.79%
